# Experimental data taken from ChEMBL document CHEMBL4715876 (J Med Chem, 2020).
# What was measured:
# [1] = Cmax in BALB/C mouse at 10 mg/kg,po measured upto 24 hrs by LC-MS analysis; type: ADME, organism-based; parameters: route oral, dose 10 mg/kg, time <= 24; settings: in vivo
# [2] = Cmax in BALB/C mouse at 1 mg/kg, iv measured upto 24 hrs by LC-MS analysis; type: ADME, organism-based; parameters: route intravenous, dose 1 mg/kg, time <= 24; settings: in vivo
# [3] = AUClast in BALB/C mouse at 1 mg/kg, iv measured upto 24 hrs by LC-MS analysis; type: ADME, organism-based; parameters: route intravenous, dose 1 mg/kg, time <= 24; settings: in vivo
# [4] = Tmax in BALB/C mouse at 1 mg/kg, iv measured upto 24 hrs by LC-MS analysis; type: ADME, organism-based; settings: in vivo
# [5] = Lipophilicity, log D of compound at pH 7.4; type: physicochemical; settings: buffer
# [6] = Volume of distribution at steady state in BALB/C mouse at 1 mg/kg, iv measured upto 24 hrs by LC-MS analysis; type: ADME, organism-based; settings: in vivo, read-out: Vdss
# [7] = AUClast in BALB/C mouse at 10 mg/kg,po measured upto 24 hrs by LC-MS analysis; type: ADME, organism-based; parameters: route oral, dose 10 mg/kg, time <= 24; settings: in vivo
# [8] = Oral bioavailability in BALB/C mouse at 10 mg/kg measured upto 24 hrs by LC-MS analysis; type: ADME, organism-based; settings: in vivo
# [9] = Solubility of the compound; type: physicochemical
# [10] = Tmax in BALB/C mouse at 10 mg/kg, po measured upto 24 hrs by LC-MS analysis; type: ADME, organism-based; settings: in vivo
# [11] = Oral bioavailability in Sprague-Dawley rat at 10 mg/kg measured upto 24 hrs by LC-MS/MS analysis; type: ADME, organism-based; settings: in vivo
# [12] = Volume of distribution at steady state in Sprague-Dawley rat at 1 mg/kg, iv measured upto 24 hrs by LC-MS/MS analysis; type: ADME, organism-based; settings: in vivo, read-out: Vdss
# [13] = Plasma concentration in CB.17 SCID mouse xenografted with OCI-LY10 cells at 30 mg/kg, po once daily for 24 days; type: ADME, organism-based; settings: time 24 day
# [14] = Tmax in Sprague-Dawley rat at 10 mg/kg, po measured upto 24 hrs by LC-MS/MS analysis; type: ADME, organism-based; settings: in vivo
# [15] = Free drug concentration in CB.17 SCID mouse xenografted with TMD-8 cells at 30 mg/kg, po once daily for 19 days; type: ADME, organism-based; settings: in vivo, 456 h, time 19 day
# [16] = Drug uptake in CB.17 SCID mouse tumor xenografted with TMD-8 cells at 3 mg/kg, po once daily for 19 days; type: ADME, organism-based, Neoplasm; settings: time 19 day, read-out: Drug uptake
# [17] = Drug uptake in CB.17 SCID mouse tumor xenografted with TMD-8 cells at 10 mg/kg, po once daily for 19 days; type: ADME, organism-based, Neoplasm; settings: time 19 day, read-out: Drug uptake
# [18] = Drug uptake in CB.17 SCID mouse tumor xenografted with OCI-LY10 cells at 1 mg/kg, po once daily for 24 days; type: ADME, organism-based, Neoplasm; settings: time 24 day, read-out: Drug uptake
# [19] = Drug uptake in CB.17 SCID mouse tumor xenografted with TMD-8 cells at 1 mg/kg, po once daily for 19 days; type: ADME, organism-based, Neoplasm; settings: time 19 day, read-out: Drug uptake
# [20] = Free drug concentration in CB.17 SCID mouse xenografted with OCI-LY10 cells at 30 mg/kg, po once daily for 24 days; type: ADME, organism-based; settings: in vivo, 576 h, time 24 day
# [21] = Plasma concentration in CB.17 SCID mouse xenografted with TMD-8 cells at 10 mg/kg, po once daily for 19 days; type: ADME, organism-based; settings: time 19 day
# [22] = Cmax in Sprague-Dawley rat at 1 mg/kg, iv measured upto 24 hrs by LC-MS/MS analysis; type: ADME, organism-based; parameters: route intravenous, dose 1 mg/kg, time <=24; settings: in vivo
# [23] = Cmax in Sprague-Dawley rat at 10 mg/kg, po measured upto 24 hrs by LC-MS/MS analysis; type: ADME, organism-based; parameters: route oral, dose 10 mg/kg, time <=24; settings: in vivo
# [24] = Plasma concentration in CB.17 SCID mouse xenografted with OCI-LY10 cells at 3 mg/kg, po once daily for 24 days; type: ADME, organism-based; settings: time 24 day
# [25] = Volume of distribution at steady state in Beagle dog at 1 mg/kg, iv measured upto 24 hrs by LC-MS/MS analysis; type: ADME, organism-based, Canis lupus familiaris; settings: beagle, in vivo, read-out: Vdss
# [26] = AUClast in Sprague-Dawley rat at 10 mg/kg, po measured upto 24 hrs by LC-MS/MS analysis; type: ADME, organism-based; parameters: route oral, dose 10 mg/kg, time <=24; settings: in vivo
# [27] = Plasma concentration in CB.17 SCID mouse xenografted with TMD-8 cells at 3 mg/kg, po once daily for 19 days; type: ADME, organism-based; settings: time 19 day
# [28] = Drug uptake in CB.17 SCID mouse tumor xenografted with OCI-LY10 cells at 30 mg/kg, po once daily for 24 days; type: ADME, organism-based, Neoplasm; settings: time 24 day, read-out: Drug uptake
# [29] = Plasma concentration in CB.17 SCID mouse xenografted with OCI-LY10 cells at 10 mg/kg, po once daily for 24 days; type: ADME, organism-based; settings: time 24 day
# [30] = Plasma concentration in CB.17 SCID mouse tumor xenografted with SUDHL-6 cells assessed as effect on body weight at 5 mg/kg, po once daily for 15 days; type: ADME, organism-based; settings: time 15 day
# [31] = Drug uptake in CB.17 SCID mouse tumor xenografted with OCI-LY10 cells at 10 mg/kg, po once daily for 24 days; type: ADME, organism-based, Neoplasm; settings: time 24 day, read-out: Drug uptake
# [32] = Tmax in Sprague-Dawley rat at 1 mg/kg, iv measured upto 24 hrs by LC-MS/MS analysis; type: ADME, organism-based; settings: in vivo
# [33] = Plasma concentration in CB.17 SCID mouse xenografted with TMD-8 cells at 1 mg/kg, po once daily for 19 days; type: ADME, organism-based; settings: time 19 day
# [34] = Drug uptake in CB.17 SCID mouse tumor xenografted with OCI-LY10 cells at 3 mg/kg, po once daily for 24 days; type: ADME, organism-based, Neoplasm; settings: time 24 day, read-out: Drug uptake
# [35] = Drug uptake in CB.17 SCID mouse tumor xenografted with SUDHL-6 cells assessed as effect on body weight at 5 mg/kg, po once daily for 15 days; type: ADME, organism-based, Neoplasm; settings: time 15 day, read-out: Drug uptake
# [36] = Plasma concentration in CB.17 SCID mouse xenografted with OCI-LY10 cells at 1 mg/kg, po once daily for 24 days; type: ADME, organism-based; settings: time 24 day
# [37] = AUClast in Sprague-Dawley rat at 1 mg/kg, iv measured upto 24 hrs by LC-MS/MS analysis; type: ADME, organism-based; parameters: route intravenous, dose 1 mg/kg, time <=24; settings: in vivo
# [38] = Drug uptake in CB.17 SCID mouse xenografted with TMD-8 cells tumor at 30 mg/kg, po once daily for 19 days; type: ADME, organism-based, Neoplasm; settings: time 19 day, read-out: Drug uptake
# [39] = Plasma concentration in CB.17 SCID mouse xenografted with TMD-8 cells at 30 mg/kg, po once daily for 19 days; type: ADME, organism-based; settings: time 19 day
smiles,measurement,setting,value
C[C@H](Nc1nc(N)nc(N)c1C#N)c1cc(=O)n2cc(F)ccc2c1-c1cc(F)cc(F)c1,Cmax,[1],4700 nM
same,Cmax,[2],1100 nM
same,AUC(0-t) at 24 h,[3],2 µM·h
same,Tmax,[4],4.8 min
same,logD,[5],1.88
same,Vd,[6],1.9 L/kg
same,AUC(0-t) at 24 h,[7],12 µM·h
same,bioavailability,[8],60%
same,solubility,[9],368 µM
same,Tmax,[10],30 min
C[C@H](Nc1nc(N)nc(N)c1C#N)c1c(-c2ccccc2)c(=O)n2cc(F)ccc2c1-c1ccc(F)cc1,Cmax,[1],7500 nM
same,bioavailability,[11],33%
same,Vd,[12],1 L/kg
same,concentration at 576 h,[13],5220 nM
same,Tmax,[14],120 min
same,Drug uptake(free),[15],166.1 nM
same,concentration at 456 h,[16],630 nM
same,Cmax,[2],2300 nM
same,concentration at 456 h,[17],1650 nM
same,concentration at 576 h,[18],130 nM
same,AUC(0-t) at 24 h,[3],5.7 µM·h
same,concentration at 456 h,[19],170 nM
same,Tmax,[4],4.8 min
same,Drug uptake(free),[20],157.6 nM
same,concentration at 456 h,[21],2670 nM
same,Cmax,[22],1700 nM
same,logD,[5],2.38
same,Cmax,[23],4800 nM
same,concentration at 576 h,[24],710 nM
same,Vd,[25],0.4 L/kg
same,Vd,[6],0.7 L/kg
same,AUC(0-t) at 24 h,[26],36 µM·h
same,concentration at 456 h,[27],700 nM
same,AUC(0-t) at 24 h,[7],22 µM·h
same,concentration at 576 h,[28],3250 nM
same,concentration at 576 h,[29],1720 nM
same,concentration at 360 h,[30],380 nM
same,concentration at 576 h,[31],960 nM
same,Tmax,[32],4.8 min
same,concentration at 456 h,[33],210 nM
same,concentration at 576 h,[34],380 nM
same,bioavailability,[8],39%
same,solubility,[9],68.5 µM
same,concentration at 360 h,[35],200 nM
same,Tmax,[10],60 min
same,concentration at 576 h,[36],180 nM
same,AUC(0-t) at 24 h,[37],11 µM·h
same,concentration at 456 h,[38],4080 nM
same,concentration at 456 h,[39],5500 nM
